Data as given in paper PMC9412861, “Understanding the pH Dependence of Supersaturation State—A Case Study of Telmisartan” (Pharmaceutics, 2022).
Like-named read-outs stand apart in the source and are kept apart here.

Columns and labels:
[1] = 1H NMR/pH titration (pKa determination); type: physicochemical; conditions: 5 v/v % D2O-95 v/v % H2O, NMR-pH titration, 25 °C, I = 0.15 M
Method: All NMR measurements were performed on a Varian 600 MHz spectrometer (Varian Inc., Palo Alto, CA, USA) with a dual 5 mm inverse-detection gradient probehead at 25 °C, constant ionic strength (I = 0.15 M) and using 5 v/v % D2O–95 v/v % H2O as solvent. The spectra were referenced to internal DSS (sodium 3-(trimethylsilyl)-1-propanesulfonate) as chemical shift reference. The pH of the samples (600 μL)were adjusted with concentrated HCl and NaOH and determined by in situ internal indicator molecules optimized for NMR [39, 40]. The concentration of telmisartan was below 1 mM during in the titration solution, due to its poor solubility, but all the peaks were still clearly visible. The water resonance was diminished by a double pulse field gradient spin echo sequence (number of transients = 16, number of points = 16,384, acquisition time = 3.33 s, relaxation delay = 1.5 s).
In order to obtain the acid dissociation constants from the chemical shifts–pH profiles, the software Origin Pro 8 (OriginLab Corp., Northampton, MA, USA) was used to perform non-linear regression with the following function:(2) δobs(pH)=δX^−+∑i=1nδHiX^i−1×10^logβi−i×pH/1+∑i=1n10^logβi−i×pH where δX^- is the chemical shift of the unprotonated ligand (X^−), δHiX^i-1 values stand for the chemical shifts of successively protonated species of X^−, n is the maximum number of protons that can bind to the unprotonated ligand, β is the cumulative macroconstant. The standard deviations of logβ values from the regression analyses were used to calculate the Gaussian propagation of uncertainty for the other equilibrium constants.

[2] = Thermodynamic (equilibrium) solubility, saturation shake-flask, in Prisma HT buffer; type: physicochemical; conditions: thermodynamic from solid
Method: The methods for thermodynamic solubility measurements can be found in Baka et al. (measured amount of TEL: 1 mg/mL, 37 °C, 6 h strirring, 18 h sedimentation). During the thermodynamic solubility measurements in Prisma buffers the concentration of the API was determined without filtering the solutions by the Rainbow Dynamic Dissolution Monitor instrument (Pion Inc., Billerica, MA, USA). In the case of solubility measurements in distilled water, the concentration of the API after filtration with PVDF membrane (0.22 µm) was determined by Jasco V-550 UV–vis spectrophotometer (Jasco Inc., Easton, MD, USA).

pKa ([1]; read-out: pKa1 ± SD (Carboxyl Group)): 3.21 ± 0.14
pKa ([1]; read-out: pKa2 ± SD (Middle Benzimidazole Ring)): 4.28 ± 0.07
pKa ([1]; read-out: pKa3 ± SD (Terminal Benzimidazole Ring)): 6.08 ± 0.04
solubility thermodynamic at 6 h ([2]; aqueous buffer, pH 2.15, 37 °C, read-out: Equilibrium solubility S ± SD): 119 ± 11.8 µg/mL
solubility thermodynamic at 6 h ([2]; aqueous buffer, pH 2.15, 37 °C, read-out: Equilibrium solubility logS ± SD (converted)): 229 µM
solubility thermodynamic at 6 h ([2]; aqueous buffer, pH 3.08, 37 °C, read-out: Equilibrium solubility S ± SD): 13.1 ± 1.73 µg/mL
solubility thermodynamic at 6 h ([2]; aqueous buffer, pH 3.08, 37 °C, read-out: Equilibrium solubility logS ± SD (converted)): 25.1 µM
solubility thermodynamic at 6 h ([2]; aqueous buffer, pH 3.82, 37 °C, read-out: Equilibrium solubility S ± SD): 3.62 ± 0.59 µg/mL
solubility thermodynamic at 6 h ([2]; aqueous buffer, pH 3.82, 37 °C, read-out: Equilibrium solubility logS ± SD (converted)): 7.08 µM
solubility thermodynamic at 6 h ([2]; aqueous buffer, pH 7.88, 37 °C, read-out: Equilibrium solubility S ± SD): 11.5 ± 0.26 µg/mL
solubility thermodynamic at 6 h ([2]; aqueous buffer, pH 7.88, 37 °C, read-out: Equilibrium solubility logS ± SD (converted)): 22.4 µM
solubility thermodynamic at 6 h ([2]; aqueous buffer, pH 9.00, 37 °C, read-out: Equilibrium solubility S ± SD): 130 ± 2.73 µg/mL
solubility thermodynamic at 6 h ([2]; aqueous buffer, pH 9.00, 37 °C, read-out: Equilibrium solubility logS ± SD (converted)): 251 µM
solubility thermodynamic at 6 h ([2]; aqueous buffer, pH 9.79, 37 °C, read-out: Equilibrium solubility S ± SD): 1470 ± 255 µg/mL
solubility thermodynamic at 6 h ([2]; aqueous buffer, pH 9.79, 37 °C, read-out: Equilibrium solubility logS ± SD (converted)): 2880 µM
solubility thermodynamic at 6 h ([2]; aqueous buffer, pH 11.74, 37 °C, read-out: Equilibrium solubility S ± SD): 2250 ± 145 µg/mL
solubility thermodynamic at 6 h ([2]; aqueous buffer, pH 11.74, 37 °C, read-out: Equilibrium solubility logS ± SD (converted)): 4370 µM
solubility thermodynamic at 6 h ([2]; pH 1.6, aqueous buffer, pH 1.60, 37 °C, read-out: Equilibrium solubility S ± SD): 150 ± 38 µg/mL
solubility thermodynamic at 6 h ([2]; pH 1.6, aqueous buffer, pH 1.60, 37 °C, read-out: Equilibrium solubility logS ± SD (converted)): 288 µM
solubility thermodynamic at 6 h ([2]; pH 2.5, aqueous buffer, pH 2.50, 37 °C, read-out: Equilibrium solubility S ± SD): 17 ± 0.72 µg/mL
solubility thermodynamic at 6 h ([2]; pH 2.5, aqueous buffer, pH 2.50, 37 °C, read-out: Equilibrium solubility logS ± SD (converted)): 47.9 µM
solubility thermodynamic at 6 h ([2]; pH 6.5, aqueous buffer, pH 6.50, 37 °C, read-out: Equilibrium solubility S ± SD): 0.79 ± 0.16 µg/mL
solubility thermodynamic at 6 h ([2]; pH 6.5, aqueous buffer, pH 6.50, 37 °C, read-out: Equilibrium solubility logS ± SD (converted)): 1.58 µM
solubility thermodynamic at 6 h ([2]; pH 9.4, aqueous buffer, pH 9.40, 37 °C, read-out: Equilibrium solubility S ± SD): 275 ± 9.4 µg/mL
solubility thermodynamic at 6 h ([2]; pH 9.4, aqueous buffer, pH 9.40, 37 °C, read-out: Equilibrium solubility logS ± SD (converted)): 537 µM
Structure (SMILES): CCCc1nc2c(C)cc(-c3nc4ccccc4n3C)cc2n1Cc1ccc(-c2ccccc2C(=O)O)cc1 [Telmisartan, telmisartan]
